Like-named read-outs stand apart in the source and are kept apart here.

Data set [1] in a line: Solubility of liberated detector compounds in water. The note with it: in water as solvent, analogous to a buffered solution.
Data set [2] can be described thus: Fluorescence properties of liberated detector compounds. The note with it: for Em: fluorescence emission wavelength of detector compound; for Ex: fluorescence excitation wavelength of detector compound; for Rel. Int.: relative fluorescent intensity of detector compound. The format is physicochemical. From the text:
The presence of the liberated D compound can be qualitatively or quantitatively determined fluorometrically, or may be utilized in colorimetric assays.

For data set [3] the following is noted: water.
The subject of another data set is DAP II. Briefly: Enzyme kinetic study of synthetic substrates with DAP II. The note with it: pH 5.6, rat pituitary homogenate 13.75 μg/mL protein equivalent, liberated D compound 7-amino-3-phenylcoumarin. The class given is biochemical. From the text:
(§1) In use for enzyme analysis, following enzyme cleavage of the bond between the C7 amino group and the A moiety, a detector group is liberated. This detector group is substantially identical to the precursor D moiety (although the amido group at C7 is converted to a primary amino group) and shall be hereinafter referred to as the liberated D compound.
(§2) The liberated D compounds from the above-described inventive synthetic substrates generally fluoresce strongly in the blue to yellow region of the spectrum once irradiated with ultraviolet light, whereas the intact synthetic substrates of the present invention fluoresce more weakly and at shorter wavelengths. The presence of the liberated D compound can be qualitatively or quantitatively determined fluorometrically, or may be utilized in colorimetric assays. Synthetic substrates in accordance with the present invention preferably fluoresce at wavelengths of at least about 460 nm. The FIG. 2 structure, for example, yields a liberated D compound which fluoresces at a wavelength of 472 nm, and the FIG. 3 structure at a wavelength of 505 nm.
The inventive synthetic substrates may be used in enzyme kinetic studies. Table I, below illustrates kinetic data of several synthetic substrates in accordance with the present invention (where the liberated D compound is 7-amino-3-phenylcoumarin) with 3 different enzymes. […]

The test system of the next data set is Trypsin. Briefly: Enzyme kinetic / reaction rate study of synthetic substrates with trypsin. The format is biochemical. The note with it: for 1/V: trypsin, pH8, 37° C., Ex = 420 nm, Em = 485 nm; for Km / Vmax: Trypsin, pH 8.0, 200 ng/mL, liberated D compound 7-amino-3-phenylcoumarin.
Description: as §1, §2
(§3) The inventive synthetic substrates may be used in enzyme kinetic studies. Table I, below illustrates kinetic data of several synthetic substrates in accordance with the present invention (where the liberated D compound is 7-amino-3-phenylcoumarin) with 3 different enzymes.
(§4) Table II, below, tabulates the data from three Lineweaver-Burk plots of reaction rate studies utilizing several of the inventive synthetic substrates.

The test system of another data set is Urokinase. Briefly: Enzyme kinetic / reaction rate study of synthetic substrates with urokinase. The note with it: for 1/V: urokinase, pH8, 37° C., Ex = 410 nm, Em = 475 nm. The class given is biochemical.
Description: as §1, §2, §3, §4

Where [4] appears, read: Urokinase, pH 8.0, 2.5 Plough units/ml, liberated D compound 7-amino-3-phenylcoumarin.

In the case of `Nc1ccc2cc(-c3ccccc3)c(=O)oc2c1` [7-amino-3-phenyl coumarin, 7-amino-3-phenylcoumarin], the Sol. in data set [1] stood at 0.0012 mg/mL. Besides, in data set [2], the Em is recorded as 472 nm, the Ex stood at 368 nm and the “Rel. Int.” value is 4.0.
In turn, `Nc1ccc2c(C(F)(F)F)cc(=O)oc2c1` [7-amino-4-trifluoro-methyl coumarin, 7-amino-4-trifluoromethylcoumarin, reference compound] gave a Sol. in data set [3] of 0.017 mg/mL. For the same compound, in data set [2], the Em was determined as 500 nm, the Ex is on record as 390 nm and the “Rel. Int.” value was 1.0.
For `Br.Br.C[C@H](NC(=O)[C@@H](N)CCCCN)C(=O)Nc1ccc2cc(-c3ccccc3)c(=O)oc2c1.O` [Example VII, 7-(L-Lysyl-L-alaninamido)-3-phenylcoumarin Dihydrobromide Monohydrate], in the data set on DAP II, the Km came to 321 µM and the Vmax worked out at 0.346 nmol/min.
For the compound `N=C(N)NCCC[C@H](NC(=O)OCc1ccccc1)C(=O)Nc1ccc2cc(-c3ccccc3)c(=O)oc2c1` [Example VIII, 7-(Z-L-Arginamido)-3-phenylcoumarin], the 1/V in the data set with Trypsin (1/S = 1.7 (mm)^-1) was 1.45 (nmol/ml/min)^-1; with Trypsin (1/S = 3.3 (mm)^-1), 2.25 (nmol/ml/min)^-1; in the data set with Trypsin (1/S = 6.7 (mm)^-1) it was 4.3 (nmol/ml/min)^-1; with Trypsin (1/S = 12.5 (mm)^-1), 7.6 (nmol/ml/min)^-1; in the data set on Trypsin (1/S = 16.6 (mm)^-1) it was 10.2 (nmol/ml/min)^-1. Also, the Km in the data set with Trypsin worked out at 574 µM. Also, the Vmax with Trypsin was determined as 1.264 nmol/min.
For the compound `N=C(N)NCCC[C@H](NC(=O)CNC(=O)CNC(=O)OCc1ccccc1)C(=O)Nc1ccc2cc(-c3ccccc3)c(=O)oc2c1` [Example X, 7-(Z-Glycylglycyl-L-arginamido)-3-phenylcoumarin], the 1/V is on record as 11 (nmol/ml/min)^-1 in the data set with Urokinase (1/S = 1 (mm)^-1); 13 (nmol/ml/min)^-1 in the data set on Urokinase (1/S = 2 (mm)^-1); 17 (nmol/ml/min)^-1 with Urokinase (1/S = 3.5 (mm)^-1); 22 (nmol/ml/min)^-1 in the data set with Urokinase (1/S = 5 (mm)^-1); 36 (nmol/ml/min)^-1 in the data set with Urokinase (1/S = 8.25 (mm)^-1); 42 (nmol/ml/min)^-1 in the data set with Urokinase (1/S = 11 (mm)^-1). Besides, the figures for the 1/V in the data set with Urokinase (1/S = 12.25 (mm)^-1) and in the data set with Urokinase (1/S = 14.25 (mm)^-1) were 50 (nmol/ml/min)^-1 and 51 (nmol/ml/min)^-1, respectively. The Km in the data set with Urokinase (setting [4]) is 411 µM. Further, the Vmax in the data set with Urokinase (setting [4]) is recorded as 0.137 nmol/min.
As for `N=C(N)NCCC[C@H](NC(=O)OCc1ccc([N+](=O)[O-])cc1)C(=O)Nc1ccc2cc(-c3ccccc3)c(=O)oc2c1` [Example XII, 7-(4-NO2 -Z-L-Arginamido)-3-phenylcoumarin], in the data set with Trypsin, the Km came to 193 µM and the maximum rate (Vmax) was 0.174 nmol/min.
Consider `N=C(N)NCCC[C@H](NC(=O)c1ccccc1)C(=O)Nc1ccc2cc(-c3ccccc3)c(=O)oc2c1` [IX, 7-(Benzoyl-L-arginamido)-3-phenylcoumarin], for which the 1/V with Trypsin (1/S = 1.1 (mm)^-1) is given as 4.9 (nmol/ml/min)^-1; in the data set on Trypsin (1/S = 1.7 (mm)^-1) it was 6.0 (nmol/ml/min)^-1; in the data set on Trypsin (1/S = 3.4 (mm)^-1), 10.0 (nmol/ml/min)^-1; in the data set with Trypsin (1/S = 6.7 (mm)^-1), 18.3 (nmol/ml/min)^-1; in the data set on Trypsin (1/S = 12.5 (mm)^-1), 35.0 (nmol/ml/min)^-1. For the same compound, the Km with Trypsin was 945 µM. Further, the Vmax in the data set with Trypsin was found to be 0.414 nmol/min.
